In patent publication US20050192279A1, “Pyridazinones as antagonists of alpha4 integrins” (priority 2004, published 2005):

What was measured:
[1] = biological target: T1, α4β1 (Homo sapiens, UniProt P05556+P13612); experiment: Ramos Cell Adhesion Assay (α4β1 Mediated Adhesion/VCAM-1); format: cell-based; conditions: Ramos cell adhesion to hVCAM-1; read-out: α4β1 IC50
T1 construct: Ramos Cell Adhesion Assay (α4β1 Mediated Adhesion/VCAM-1); endogenous in cells; host or cells: Ramos cells
Method: Ramos Cell Adhesion Assay (α4β1 Mediated Adhesion/VCAM-1)
Immulon 96 well plates (Dynex) were coated with 100 μL recombinant hVCAM-1 at 4.0 μg/mL in 0.05 M NaCO3 buffer pH 9.0 overnight at 4° C. (R&D Systems). Plates were washed 2 times in PBS with 1% BSA and blocked for 1 h @ room temperature in this buffer. PBS was removed and compounds to be tested (50 μL) were added at 2× concentration. Ramos cells, (50 μL at 2×10^6/mL) labeled with 5 μM Calcein AM (Molecular Probes) for 1 h at 37° C., were added to each well and allowed to adhere for 1 h at room temperature. Plates were washed 4× in PBS+1% BSA and cells were lysed for 15 minutes in 100 μL of 1 M Tris pH 8.0 with 1% SDS.

[2] = biological target: T2, human α4β7 integrin (Homo sapiens, UniProt P13612+P26010); experiment: α4β7-K562 Cell Adhesion Assay (α4β7 Mediated Adhesion/MAdCAM-1); format: cell-based; conditions: α4β7-K562 cell adhesion to hMAdCAM-1; read-out: α4β7 IC50
T2 construct: expressed in transfected cells; host or cells: K562 cells, stably transfected
T2 sequence (P13612 34-1032): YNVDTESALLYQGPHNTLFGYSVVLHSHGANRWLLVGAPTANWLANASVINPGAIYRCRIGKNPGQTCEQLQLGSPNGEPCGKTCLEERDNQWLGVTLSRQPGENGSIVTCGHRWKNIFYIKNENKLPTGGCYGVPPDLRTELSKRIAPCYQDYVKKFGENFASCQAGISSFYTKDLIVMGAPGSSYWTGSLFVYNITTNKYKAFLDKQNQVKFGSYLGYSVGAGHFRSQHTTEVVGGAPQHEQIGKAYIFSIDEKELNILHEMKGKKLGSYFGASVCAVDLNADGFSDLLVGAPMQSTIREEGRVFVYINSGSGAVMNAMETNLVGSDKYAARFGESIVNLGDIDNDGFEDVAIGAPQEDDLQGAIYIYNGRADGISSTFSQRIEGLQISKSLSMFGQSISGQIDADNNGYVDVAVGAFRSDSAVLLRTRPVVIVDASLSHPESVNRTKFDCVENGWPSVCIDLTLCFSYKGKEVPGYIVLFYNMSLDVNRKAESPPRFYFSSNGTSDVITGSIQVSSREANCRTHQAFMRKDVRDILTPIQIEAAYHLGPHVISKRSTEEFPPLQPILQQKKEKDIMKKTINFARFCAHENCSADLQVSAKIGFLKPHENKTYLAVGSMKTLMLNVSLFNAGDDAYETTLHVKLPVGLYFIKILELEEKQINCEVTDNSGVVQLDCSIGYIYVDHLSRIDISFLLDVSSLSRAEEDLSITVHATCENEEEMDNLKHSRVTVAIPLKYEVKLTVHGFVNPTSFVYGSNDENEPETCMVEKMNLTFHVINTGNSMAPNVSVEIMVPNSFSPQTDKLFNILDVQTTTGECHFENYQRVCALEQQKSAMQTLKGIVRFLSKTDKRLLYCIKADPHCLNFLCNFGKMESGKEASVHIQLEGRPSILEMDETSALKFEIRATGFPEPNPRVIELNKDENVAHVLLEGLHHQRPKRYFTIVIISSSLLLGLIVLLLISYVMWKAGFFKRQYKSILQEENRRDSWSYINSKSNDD
T2 sequence (P26010 20-798): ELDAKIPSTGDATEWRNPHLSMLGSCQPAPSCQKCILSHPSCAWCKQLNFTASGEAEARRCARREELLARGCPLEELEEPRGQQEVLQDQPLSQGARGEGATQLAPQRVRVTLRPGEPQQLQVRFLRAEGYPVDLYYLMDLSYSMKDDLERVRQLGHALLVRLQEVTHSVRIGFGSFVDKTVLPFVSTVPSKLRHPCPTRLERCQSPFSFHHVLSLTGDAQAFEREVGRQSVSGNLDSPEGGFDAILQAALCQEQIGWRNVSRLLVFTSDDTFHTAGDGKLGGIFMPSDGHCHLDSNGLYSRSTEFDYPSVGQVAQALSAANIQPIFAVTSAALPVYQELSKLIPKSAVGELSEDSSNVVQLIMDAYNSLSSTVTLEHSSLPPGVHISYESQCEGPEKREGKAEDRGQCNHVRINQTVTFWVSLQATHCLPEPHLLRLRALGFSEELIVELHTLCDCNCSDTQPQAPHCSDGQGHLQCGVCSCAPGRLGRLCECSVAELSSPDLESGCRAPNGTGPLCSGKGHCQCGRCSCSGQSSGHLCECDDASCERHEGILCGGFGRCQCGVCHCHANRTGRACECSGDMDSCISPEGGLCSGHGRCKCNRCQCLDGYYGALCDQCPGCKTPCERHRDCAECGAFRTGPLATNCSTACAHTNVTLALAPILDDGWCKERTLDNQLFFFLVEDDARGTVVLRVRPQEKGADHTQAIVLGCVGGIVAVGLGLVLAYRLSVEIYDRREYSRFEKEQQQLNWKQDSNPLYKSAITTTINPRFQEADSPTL
Method: α4β7-K562 Cell Adhesion Assay (α4β7 Mediated Adhesion/MAdCAM-1)
M2 anti-FLAG Antibody Coated 96-well plates (Sigma) were coated for 1 hour at 4° C. with 2-8 μl/well recombinant FLAG-hMAdCAM-1 contained in 100 μL of Dulbecco's PBS, pH 7.4, with 1% BSA and 1 mM Mn ^+2 (PBS-BSA-Mn). Plates were washed once with PBS-BSA-Mn. Buffer was removed and compounds to be tested (50 μL) were added at 2× concentration. Stably transfected K562 cells expressing human α4β7 integrin, (50 μL at 2×10^6/mL) that had been labeled with 100 μg/ml carboxymethyl fluorescein diacetate succinimidyl ester (CFDA-SE; Molecular Probes) for 15 min at 37° C. were added to each well and allowed to adhere for 1 h at room temperature. Plates were washed 4× in PBS-BSA-Mn and then cells were lysed for 2 minutes by addtion of 100 μL of PBS without Ca, Mg supplemented with 0.1 M NaOH.

T1 sequence (P05556 21-798, one chain of several): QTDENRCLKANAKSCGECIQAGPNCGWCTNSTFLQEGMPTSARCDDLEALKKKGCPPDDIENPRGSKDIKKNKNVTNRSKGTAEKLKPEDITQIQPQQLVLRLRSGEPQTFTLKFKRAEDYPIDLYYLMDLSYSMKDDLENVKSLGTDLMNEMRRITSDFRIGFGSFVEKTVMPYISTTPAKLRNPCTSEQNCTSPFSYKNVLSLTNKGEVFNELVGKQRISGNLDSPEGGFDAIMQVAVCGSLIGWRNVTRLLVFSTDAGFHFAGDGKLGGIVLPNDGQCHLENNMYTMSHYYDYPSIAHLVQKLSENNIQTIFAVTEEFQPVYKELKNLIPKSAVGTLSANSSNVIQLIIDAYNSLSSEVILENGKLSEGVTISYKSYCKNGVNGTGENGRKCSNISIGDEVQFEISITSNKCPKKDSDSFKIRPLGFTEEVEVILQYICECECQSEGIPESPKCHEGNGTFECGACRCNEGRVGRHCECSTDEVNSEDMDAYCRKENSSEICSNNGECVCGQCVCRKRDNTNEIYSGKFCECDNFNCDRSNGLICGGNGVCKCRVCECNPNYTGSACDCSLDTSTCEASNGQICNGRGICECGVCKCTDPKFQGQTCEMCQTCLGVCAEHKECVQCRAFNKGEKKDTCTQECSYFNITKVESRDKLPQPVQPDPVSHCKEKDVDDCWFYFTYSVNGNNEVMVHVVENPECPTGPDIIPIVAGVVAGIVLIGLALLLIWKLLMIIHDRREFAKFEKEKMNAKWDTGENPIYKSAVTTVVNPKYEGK

IC50 [1] | IC50 [2] | Compound
> 5000 nM | 999 nM | COc1cnn(C)c(=O)c1-c1ccc(C[C@H](NC(=O)c2cccnc2O)C(=O)O)cc1 [Cpd 191]
> 1000 nM | 230 nM | CCOc1cnn(C(C)(C)C)c(=O)c1-c1ccc(C[C@H](NC(=O)c2c(Cl)cccc2Cl)C(=O)O)cc1 [Cpd 142]
229 nM | 14 nM | COc1cnn(C)c(=O)c1-c1ccc(C[C@H](NC(=O)[C@@H](C)N(C)C(=O)Cc2ccsc2)C(=O)O)cc1 [Cpd 50]
5610 nM | 36 nM | CSc1cnn(C(C)(C)C)c(=O)c1-c1ccc(C[C@H](NC(=O)c2c(Cl)cccc2Cl)C(=O)O)cc1 [Cpd 78]
> 5000 nM | 9 nM | COc1cnn(C)c(=O)c1-c1ccc(C[C@H](NC(=O)C2(C(N)=O)CC2)C(=O)O)cc1 [Cpd 38]
> 5000 nM | 261 nM | Cn1ncc(-n2nccc2-c2cccs2)c(-c2ccc(C[C@H](NC(=O)c3c(Cl)cccc3Cl)C(=O)O)cc2)c1=O [Cpd 148]
4500 nM | 48 nM | COc1cnn(C)c(=O)c1-c1ccc(C[C@H](NC(=O)[C@@H](C(C)C)N(C)C(=O)CCc2ccccc2)C(=O)O)cc1 [Cpd 90]
2380 nM | 49 nM | COCCOCCOC(=O)[C@H](Cc1ccc(-c2c(OC)cnn(C)c2=O)cc1)NC(=O)c1c(Cl)cccc1Cl [Cpd 91]
> 5000 nM | > 5000 nM | COc1cnn(CCO)c(=O)c1-c1ccc(C[C@H](NC(=O)OC(C)(C)C)C(=O)OCCO)cc1 [Cpd 212]
4020 nM | 17 nM | CNC(C(=O)NC(Cc1ccc(-c2c(OC)cnn(C)c2=O)cc1)C(=O)O)C(C)C (single isomer, unassigned) [Cpd 54]
192 nM | 2 nM | Cn1ncc(OCCOCCO)c(-c2ccc(C[C@H](NC(=O)c3c(Cl)cccc3Cl)C(=O)O)cc2)c1=O [Cpd 7]
> 5000 nM | 813 nM | COc1cnn(C)c(=O)c1-c1ccc(C[C@H](NC(=O)OC(C)C)C(=O)O)cc1 [Cpd 184]
190 nM | 26 nM | CN1CCC(Oc2cnn(CCO)c(=O)c2-c2ccc(C[C@H](NC(=O)c3c(Cl)cccc3Cl)C(=O)O)cc2)C1 (some centres unmarked) [Cpd 72]
> 5000 nM | 575 nM | COc1cnn(C)c(=O)c1-c1ccc(C[C@H](NC(=O)CN(C)C)C(=O)O)cc1 [Cpd 173]
154 nM | 271 nM | CN(C)CCOc1cnn(C)c(=O)c1-c1ccc(C[C@H](NC(=O)c2c(Cl)cccc2Cl)C(=O)O)cc1 [Cpd 150]
3300 nM | 2550 nM | COc1cnn(C)c(=O)c1-c1ccc(C[C@H](NC(=O)CCC(C)(C)C)C(=O)O)cc1 [Cpd 206]
> 5000 nM | 480 nM | COc1cnn(CCN2CCOCC2)c(=O)c1-c1ccc(C[C@H](NC(=O)[C@H](NC(=O)OC(C)(C)C)[C@H](C)O)C(=O)O)cc1 [Cpd 167]

IC50 [1] | IC50 [2] | Compound
> 1000 nM | 119 nM | COc1cnn(C)c(=O)c1-c1ccc(C[C@H](NC(=O)CC(C)C)C(=O)O)cc1 [Cpd 124]
> 5000 nM | 1780 nM | COc1cnn(C)c(=O)c1-c1ccc(C[C@H](NC(=O)OCc2c(C)cc(C)cc2C)C(=O)O)cc1 [Cpd 203]
289 nM | 85 nM | Cn1ncc(OC(F)F)c(-c2ccc(C[C@H](NC(=O)c3c(Cl)cccc3Cl)C(=O)O)cc2)c1=O [Cpd 112, (S)-2-(2,6-Dichloro-benzoylamino)-3-[4-(5-difluoromethoxy-2-methyl-3-oxo-2,3-dihydro-pyridazin-4-yl)-phenyl]-propionic acid]
319 nM | 228 nM | COc1cnn(C)c(=O)c1-c1ccc(C[C@H](NC(=O)C23CCC(CC2)CN3C(=O)CCC2CCNCC2)C(=O)O)cc1 [Cpd 139]
> 5000 nM | 4650 nM | COc1cnn(CCN2CCOCC2)c(=O)c1-c1ccc(C[C@H](NC(=O)[C@H](N)C(C)C)C(=O)O)cc1 [Cpd 210]
> 1000 nM | 490 nM | O=C(N[C@@H](Cc1ccc(-c2c(O)cn[nH]c2=O)cc1)C(=O)O)c1c(Cl)cccc1Cl [Cpd 168]
> 5000 nM | 115 nM | COc1cnn(C)c(=O)c1-c1ccc(C[C@H](NC(=O)C2(NC(=O)OC(C)(C)C)CCCC2)C(=O)O)cc1 [Cpd 223]
> 5000 nM | 41 nM | COc1cnn(C)c(=O)c1-c1ccc(C[C@H](NC(=O)c2ccc[nH]2)C(=O)O)cc1 [Cpd 84]
> 5000 nM | 14 nM | COc1cnn(C)c(=O)c1-c1ccc(C[C@H](NC(=O)C2(NC3CCC4(CC3)OCCO4)CC2)C(=O)O)cc1 [Cpd 224]
2050 nM | 295 nM | COc1cnn(C)c(=O)c1-c1ccc(CC(NC(=O)C(NC(C)C)C(C)C)C(=O)O)cc1 (centres unmarked) [Cpd 153, 2-(2-Isopropylamino-3-methyl-butyrylamino)-3-[4-(5-methoxy-2-methyl-3-oxo-2,3-dihydro-pyridazin-4-yl)-phenyl]-propionic acid]
508 nM | 204 nM | COc1cnn(C)c(=O)c1-c1ccc(C[C@H](NC(=O)c2c(C)cc(C)nc2N)C(=O)O)cc1 [Cpd 138]
588 nM | 10 nM | COc1cnn(CC(F)(F)F)c(=O)c1-c1ccc(C[C@H](NC(=O)c2c(Cl)cccc2Cl)C(=O)O)cc1 [Cpd 39]
> 1000 nM | 332 nM | CN(C)c1cnn(C(C)(C)C)c(=O)c1-c1ccc(C[C@H](NC(=O)c2c(Cl)cccc2Cl)C(=O)O)cc1 [Cpd 155]
> 5000 nM | 363 nM | COc1cnn(C)c(=O)c1-c1ccc(C[C@H](NC(=O)C(N)C(C)C)C(=O)O)cc1 (some centres unmarked) [Cpd 159]
2.7 nM | 72 nM | COc1cnn(C)c(=O)c1-c1ccc(C[C@H](NC(=O)[C@@H]2C3CCC(CC3)N2S(=O)(=O)c2ccccc2)C(=O)O)cc1 [Cpd 108]
> 5000 nM | 2760 nM | COc1cnn(C)c(=O)c1-c1ccc(C[C@H](NC(=O)OC2CCCCC2)C(=O)O)cc1 [Cpd 208]
> 5000 nM | 18 nM | COc1cnn(C)c(=O)c1-c1ccc(CC(NC(=O)C(NC(=O)OC(C)(C)C)C(C)C)C(=O)O)cc1 (mixture of isomers) [Cpd 58]
